# According to patent publication US6608032B1, “Medicinal compositions” (Takara Shuzo Co., Ltd., priority 1999, dated 2003):
# Read-outs that look alike come from different tables or passages of the source.
# Columns and labels:
# HL-60 cells = experiment: Proliferation of HL-60 cells with or without hydroxyurea G1 arrest, WST-1; format: cell-based; conditions: read-out: IC50 (concentration at which 50% of the proliferation is inhibited)
# Procedure: HL-60 cells (ATCC CCL-240) were suspended in RPMI 1640 medium (Bio Whittaker, 12-702F) containing 10% fetal calf serum (Gibco) and […] at a concentration of 5×10^5 cells/ml. 20 ml of the suspension was added to a 10-cm Petri dish. The dish was incubated at 37° C. overnight in the presence of 5% CO2 to make the cells arrest at G1 phase. The cells were collected by centrifugation and resuspended in RPMI 1640 medium containing 10% fetal calf serum (Gibco) and 100 μM hydroxyurea at a concentration of 5×10^5 cells/ml. 5 ml of the suspension was added to each well of a 6-well microtiter plate. On the other hand, as cells without the treatment with hydroxyurea, HL-60 cells were suspended in RPMI 1640 medium containing 10% fetal calf serum (Gibco) at a concentration of 1×10^5 cells/ml. 5 ml of the suspension was added to each well of a 6-well microtiter plate. 50 μl of a solution containing agarobiose at a concentration of 80, 60, 40 or 20 mM in water, or 50 μl of a solution containing the agarohexaose at a concentration of 80, 60, 40 or 20 mM in water was added to the well containing the cells treated with hydroxyurea. 50 μl of a solution containing agarobiose at a concentration of 40, 30, 20 or 10 mM in water, or 50 μl of a solution containing agarohexaose at a concentration of 40, 30, 20 or 10 mM in water was added to the well containing the cells without the treatment with hydroxyurea. The plate was incubated for additional 48 hours. Cells collected by centrifuging the culture were suspended in 5 ml of fresh RPMI 1640 medium containing 10% fetal calf serum (Gibco). 100 μl of the suspension was used for measuring the viable cell number using Premix WST-1 Cell Proliferation Assay System (Takara Shuzo, MK400).
# cyclooxygenase 2 mRNA = experiment: LPS-induced cyclooxygenase 2 mRNA synthesis in RAW264.7 cells (RT-PCR); format: cell-based; conditions: 50 μl of 10 mM solution per 5 ml, added 0 or 6 hours before LPS
# Procedure: (2) RAW264.7 cells (ATCC TIB 71) were suspended in Dulbecco's modified Eagle's medium (Bio Whittaker, 12-604F) containing 10% fetal calf serum (Gibco) at a concentration of 3×10^5 cells/ml. 5 ml of the suspension was added to each well of a 6-well microtiter plate and the plate was incubated at 37° C. overnight in the presence of 5% CO2. 50 μl of a solution containing agarobiose or agarohexaose at a concentration of 10 mM in water was added to the well. The plate was incubated for 0 or 6 hours. 50 μl of a solution containing lipopolysaccharide (LPS, Sigma, L-2012) at a concentration of 100 μg/ml in water was added to the well. The plate was incubated for additional 5 hours. The culture supernatant was removed, and 1 ml of a solution of Catrimox-14 (a product of Iowa Biotechnology sold by Takara Shuzo, WA002) was added to the well. After pipetting, the solution was collected. An RNA was prepared according to the attached protocol. The RNA prepared as described above was subjected to RT-PCR using RNA-PCR Kit (AMV) Ver. 2.1 (Takara Shuzo, R019A). A reverse transcription reaction was conducted using a random primer (N6) (Takara Shuzo, 3801) at 30° C. for 10 minutes, at 42° C. for 30 minutes and 99° C. for 5 minutes. […]
# [1] = system: enzymes involved in the synthesis of prostaglandin E2 from arachidonic acid; experiment: Prostaglandin E2 generation from arachidonic acid, sample added directly to crude enzyme fraction; format: biochemical; conditions: 1 μL of 100 mM agarobiose, 100 mM agarohexaose, 10 mM DGE or 13 mM nimesulide added to 100 μL crude enzyme fraction; FIG. 15
# Procedure: 2.5 μL of 200 mM aqueous solution of glutathione, 2.5 μL of a suspension containing L-adrenaline at a concentration of 200 mM in water, and 1 μL of 100 mM aqueous solution of agarobiose, 100 mM aqueous solution of agarohexaose or 10 mM aqueous solution of DGE as a sample were added to 100 μL of the control sample from the crude enzyme fraction prepared in Example 15. 1 μL of water was added as a negative control. 1 μL of 13 mM nimesulide (Cayman, 70640) solution was added as a positive control. 1 μL of 3 mM arachidonic acid solution was then added to start the reaction. The mixture was reacted at 37° C. for 5 minutes. The reaction was stopped by heating at 100° C. for 2 minutes. The content of prostaglandin E2 in the reaction mixture was measured using Prostaglandin E2 ELISA Kit.
# RAW264.7 cells = experiment: LPS-induced IL-10 production in RAW264.7 cells; format: cell-based; conditions: 5 μl of 10 mM solution per 0.5 ml, 5 hours before LPS; 18 hours; FIG. 18
# Procedure: RAW264.7 cells (ATCC TIB 71) were suspended in Dulbecco's modified Eagle's medium (Bio Whittaker, 12-604F) containing 10% fetal calf serum (Gibco) at a concentration of 3×10^5 cells/ml. 0.5 ml of the suspension was added to each well of a 48-well microtiter plate and the plate was incubated at 37° C. overnight in the presence of 5% CO2. 5 μl of a solution containing agarobiose or agarohexaose in Referential Example 1 at a concentration of 10 mM in water was added to the well. After incubation for additional 5 hours, 5 μl of a solution of lipopolysaccharide (LPS, Sigma, L-2012) at a concentration of 100 μg/ml in water was added the well. After incubation for 18 hours, a culture supernatant was collected. The content of interleukin 10 (IL-10) in the culture supernatant was measured using enzyme immuno sandwich assay. As a control, a group to which the sample or the LPS aqueous solution was not added was provided. All of the measurements were carried out in duplicate.
"IC50 (HL-60 cells; Cells treated with hydroxyurea (arrested at G1 phase), 48 hours) [µM]","IC50 (HL-60 cells; Cells without treatment with hydroxyurea, 48 hours) [µM]",SMILES,"IC50 (HL-60 cells; Homo sapiens, HL-60, 48 h, Cells treated with hydroxyurea (arrested at G1 phase)) [µM]","IC50 (HL-60 cells; Homo sapiens, HL-60, 48 h, Cells without treatment with hydroxyurea) [µM]",increase in the cyclooxygenase 2 mRNA synthesis induced by LPS (cyclooxygenase 2 mRNA),production of prostaglandin E2 from arachidonic acid [1],LPS-induced IL-10 production (RAW264.7 cells)
–,–,"OCC1OC(OC2C3COC2C(O)C(OC2C(O)C(CO)OC(OC4C5COC4C(O)C(OC4C(O)C(CO)OC(OC6C7COC6C(O)C(O)O7)C4O)O5)C2O)O3)C(O)C(O)C1O (stereo not shown) [Agarohexaose, agarohexaose]",383,205,not suppressed,not suppressed,inhibition of LPS-induced IL-10 production
401,211,"OC[C@H]1O[C@@H](O[C@H]2[C@H]3OC[C@@H]2OC(O)[C@H]3O)[C@H](O)[C@@H](O)[C@H]1O (mixture of isomers) [Agarobiose, agarobiose]",–,–,not suppressed,not suppressed,inhibition of LPS-induced IL-10 production
